Laboratory results taken from ChEMBL document CHEMBL1122068, “Species- or isozyme-specific enzyme inhibitors. 5. Differential effects of thymidine substituents on affinity for rat thymidine kinase isozymes” (J Med Chem, 1982).

Legend:
[1] = molecular target: T1, Thymidine kinase, cytosolic (Rattus norvegicus) (UniProt P27158); assay: Affinity towards cytoplasmic Thymidine kinase relative ot TdR.
T1 sequence (whole entry): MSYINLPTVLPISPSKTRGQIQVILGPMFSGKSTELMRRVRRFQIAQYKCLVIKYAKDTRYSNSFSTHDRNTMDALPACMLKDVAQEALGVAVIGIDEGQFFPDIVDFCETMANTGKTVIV

[2] = molecular target: T2, Thymidine kinase 2 (Rattus norvegicus) (UniProt D3ZGQ2); assay: Affinity towards mitochondrial thymidine kinase relative to TdR.
T2 sequence (whole entry): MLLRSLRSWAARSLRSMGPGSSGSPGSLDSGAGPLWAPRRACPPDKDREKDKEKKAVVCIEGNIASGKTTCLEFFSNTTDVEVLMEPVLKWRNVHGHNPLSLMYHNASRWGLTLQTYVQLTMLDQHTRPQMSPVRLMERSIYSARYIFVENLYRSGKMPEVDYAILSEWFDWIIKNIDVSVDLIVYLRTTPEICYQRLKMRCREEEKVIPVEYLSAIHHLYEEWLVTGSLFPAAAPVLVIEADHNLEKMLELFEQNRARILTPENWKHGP

Rattus norvegicus = species: Rattus norvegicus; assay: Differential affinity is the ratio between M-TK and C-TK
[3] = molecular target: T2, Thymidine kinase 2 (Rattus norvegicus); assay: Ability to inhibit rat mitochondrial thymidine kinase; parameters: concentration or dose not given beside the values; conditions: concentration not given here
[4] = molecular target: T1, Thymidine kinase, cytosolic (Rattus norvegicus); assay: Ability to inhibit rat cytoplasmic Thymidine kinase; parameters: concentration or dose not given beside the values; conditions: concentration not given here
[5] = molecular target: T3, Thymidine kinase, cytosolic (Rattus norvegicus, UniProt P27158); assay: Affinity towards cytoplasmic Thymidine kinase relative ot TdR; expressed as KM (TdR)/Ki
T3 sequence (P27158 whole entry): T1 sequence (whole entry)

Thymidine kinase 2 = molecular target: T4, Thymidine kinase 2 (Rattus norvegicus, UniProt D3ZGQ2); assay: Competitive inhibition against rat mitochondrial thymidine kinase
T4 sequence (D3ZGQ2 whole entry): T2 sequence (whole entry)

[6] = molecular target: T3, Thymidine kinase, cytosolic; assay: Competitive inhibition against rat cytoplasmic Thymidine kinase
[7] = molecular target: T1, Thymidine kinase, cytosolic (Rattus norvegicus); assay: (§1) Competitive inhibition against rat cytoplasmic thymidine kinase; parameters: concentration or dose not given beside the values; conditions: concentration not given here
[8] = molecular target: T1, Thymidine kinase, cytosolic (Rattus norvegicus); assay: Affinity towards cytoplasmic thymidine kinase relative ot TdR; expressed as KM (TdR)/Ki
[9] = molecular target: T3, Thymidine kinase, cytosolic; assay: as §1

Relative affinity [1] | Relative affinity [2] | Differential affinity (Rattus norvegicus) | inhibition [3] [%] | inhibition [4] [%] | Ki (Thymidine kinase 2) [µM] | Ki [6] [µM] | SMILES | other results
 |  |  | 36 | 48 |  |  | Cc1cn(C2CC(O)C(CSCCCC(=O)O)O2)c(=O)[nH]c1=O (stereo unspecified) | Ki [5]: 3600 µM
0.032 | 0.032 | 1 |  |  | 250 | 50 | CSc1cn([C@H]2C[C@H](O)[C@@H](CO)O2)c(=O)[nH]c1=O | 
 |  |  | 3 | 30 |  |  | NCc1cn([C@H]2C[C@H](O)[C@@H](CO)O2)c(=O)[nH]c1=O | 
 |  |  | 53 | 95 |  |  | CCCCNCC1OC(n2cc(C)c(=O)[nH]c2=O)CC1O (stereo unspecified) | 
 |  |  | 25 | 40 |  |  | Cc1cn(C2CC(O)C(CSCCC(=O)O)O2)c(=O)[nH]c1=O (stereo unspecified) | 
 |  |  | 11 | 0 |  |  | CC(=O)Nc1cn([C@H]2C[C@H](O)[C@@H](CO)O2)c(=O)[nH]c1=O | 
0.002 |  |  | 22 | 49 |  | 820 | Cc1cn(C2CC(O)C(CSCCO)O2)c(=O)[nH]c1=O (stereo unspecified) | 
0.04 | 0.0056 | 0.14 |  |  | 1440 | 40 | CCNCC1OC(n2cc(C)c(=O)[nH]c2=O)CC1O (stereo unspecified) | 
 |  | < 4.8 |  |  |  |  | CC(=O)NC1CC(n2cc(C)c(=O)[nH]c2=O)OC1CO (stereo unspecified) | 
0.0042 | 0.0031 | 0.74 |  |  | 2600 | 380 | Cc1cn([C@H]2C[C@H](N)[C@@H](CO)O2)c(=O)[nH]c1=O [3-AMINO- 3-DEOXYTHYMIDINE] | 
0.004 | 0.0091 | 2.3 |  |  | 880 | 400 | Cc1cn([C@H]2CC[C@@H](CO)O2)c(=O)[nH]c1=O | 
0.046 | 0.0083 | 0.18 |  |  | 960 | 35 | CCCCCCNCC1OC(n2cc(C)c(=O)[nH]c2=O)CC1O (stereo unspecified) | 
0.67 | 0.0017 | 0.0025 |  |  | 4600 | 2.4 | Cc1cn([C@H]2C[C@H](O)[C@@H](CN)O2)c(=O)[nH]c1=O | 
0.067 | 0.13 | 1.9 |  |  | 62 | 24 | CCSC1CC(n2cc(C)c(=O)[nH]c2=O)OC1CO (stereo unspecified) | 
 | 0.14 | 3.2 |  |  |  |  | CCO[C@H]1C[C@H](n2cc(C)c(=O)[nH]c2=O)O[C@@H]1CO | Relative affinity [8]: 0.044; Ki [9]: 36 µM
0.0043 | 0.11 | 26 |  |  | 72 | 370 | Nc1cn([C@H]2C[C@H](O)[C@@H](CO)O2)c(=O)[nH]c1=O | 
 |  |  | 19 | 20 |  |  | CC(=O)NCC1OC(n2cc(C)c(=O)[nH]c2=O)CC1O (stereo unspecified) | 
 |  |  | 7 |  |  |  | CC[S+]([O-])CC1OC(n2cc(C)c(=O)[nH]c2=O)CC1O (stereo unspecified) | inhibition [7]: 4%
 |  |  | 22 | 11 |  |  | CCSCC1OC(n2cc(C)c(=O)[nH]c2=O)CC1O (stereo unspecified) | 
 |  |  |  |  |  | 15500 | C/C=C/c1cn([C@H]2C[C@H](O)[C@@H](CO)O2)c(=O)[nH]c1=O | 

Further lines, the compound ahead of its results:

SMILES | Relative affinity [1] | Relative affinity [2] | Differential affinity (Rattus norvegicus) | inhibition [3] [%] | inhibition [4] [%] | Ki (Thymidine kinase 2) [µM] | Ki [6] [µM] | other results
CCOC1N([C@H]2C[C@H](O)[C@@H](CO)O2)C(=O)NC(=O)C1(C)Br (stereo in doubt; 4c) [listing 1 of 2 here] | 0.41 | 0.73 | 1.8 |  |  |  |  | 
O=c1ccn([C@H]2C[C@H](O)[C@@H](CO)O2)c(=O)[nH]1 |  |  |  | 74 | 90 |  |  | 
Cc1cn([C@H]2C=C[C@@H](CO)O2)c(=O)[nH]c1=O [STAVUDINE] |  |  | 2.7 |  |  | 3250 |  | 
Cc1cn([C@H]2C[C@H](O)[C@@H](CO)O2)c(=O)n(C)c1=O |  |  | < 0.022 |  |  |  |  | 
CCOC1N([C@H]2C[C@H](O)[C@@H](CO)O2)C(=O)NC(=O)C1(C)Br (stereo in doubt; 4b) [listing 1 of 2 here] |  |  |  |  |  |  | 2 | 
CC1CN([C@H]2C[C@H](O)[C@@H](CO)O2)C(=O)NC1=O (stereo partly specified) |  | 0.1 |  | 83 |  | 77 |  | inhibition [7]: 53%
CCOC1N([C@H]2C[C@H](O)[C@@H](CO)O2)C(=O)NC(=O)C1(C)Br (stereo in doubt; 4b) [listing 2 of 2 here] | 0.8 | 0.73 | 0.91 |  |  |  |  | 
CCOC1N([C@H]2C[C@H](O)[C@@H](CO)O2)C(=O)NC(=O)C1(C)Br (stereo in doubt; 4c) [listing 2 of 2 here] |  |  |  |  |  | 11 | 3.9 | 
O=c1ccn([C@@H]2O[C@H](CO)[C@@H](O)[C@H]2O)c(=O)[nH]1 |  |  |  | 4 | 4 |  |  | 
Cc1cn([C@H]2C[C@H](O)[C@@H](CO)O2)c(=O)nc1N | 0.00076 | 0.006 | 7.9 |  |  |  | 2100 | 
CO[C@H]1C[C@H](n2ccc(N)nc2=O)O[C@@H]1CO |  |  |  | 24 |  |  |  | inhibition [7]: 3%
CCC(=O)O[C@H]1C[C@H](n2ccc(N)nc2=O)O[C@@H]1CO |  |  |  | 19 |  |  |  | inhibition [7]: 8%
Cc1cn([C@H]2C[C@H](OCc3ccccc3)[C@@H](CO)O2)c(=O)[nH]c1=O | 0.133 | 1 | 7.5 |  |  | 8 |  | Ki [9]: 12 µM
Cc1cn([C@H]2C[C@H](O)[C@@H](CO)O2)c(=O)n(Cc2ccccc2)c1=O | 0.05 | > 0.002 | 0.04 | 10 |  |  |  | Ki [9]: 320 µM
CCCCCn1c(=O)c(C)cn([C@H]2C[C@H](O)[C@@H](CO)O2)c1=O | 0.044 | 0.0073 | 0.17 |  |  | 1100 | 36 | 
Nc1ccn([C@H]2C[C@H](O)[C@@H](CO)O2)c(=O)n1 [DOXECITINE] |  | 0.025 |  | 58 | 7 | 320 |  | 
Nc1ccn([C@@H]2O[C@H](CO)[C@@H](O)[C@H]2O)c(=O)n1 |  |  |  | 13 | 1 |  |  | 
CCNc1ccn([C@H]2C[C@H](O)[C@@H](CO)O2)c(=O)n1 |  |  |  | 5 | 7 |  |  | 
Nc1nc(=O)n([C@H]2C[C@H](O)[C@@H](CO)O2)cc1I [IBACITABINE] |  |  |  |  |  |  | 11400 | 
Cn1c(=O)ccn([C@H]2C[C@H](O)[C@@H](CO)O2)c1=O |  |  |  | 4 |  |  |  | inhibition [7]: 62%
